This is an account of results in ChEMBL document CHEMBL1149994, “Total synthesis of novel conduritol related compounds capable of modulating insulin release” (1994).

Structures are written as SMILES.

For assay [1], the species on record is Rattus norvegicus. In words: Tested for change in release of insulin from pancreatic islets of Sprague-Dawley rats at a concentration of 16.7 mM glucose. The format is functional.
For assay [2], the species on record is Rattus norvegicus. Put plainly: Tested for change in release of insulin from pancreatic islets of Sprague-Dawley rats at a concentration of 2.8 mM glucose. The format is functional.

Consider `O[C@H]1[C@H](O)[C@@H](O)C=C[C@H]1O`, for which the Change in assay [1] is given as -3%; in assay [2], 9%.
For `O[C@H]1[C@H](O)[C@H](O)C=C[C@H]1O`, the Change in assay [1] is recorded as 15%; in assay [2] it was 12%.
For `O[C@@H]1[C@H](O)[C@@H](O)C=C[C@H]1O`, in that order: -30% and 45%.
For `CC(C)[C@@]12CC[C@@](C)(C3C1[C@H](O)[C@@H](O)[C@@H](O)[C@@H]3O)[C@@H](O)[C@H]2O` (stereo partly specified), in that order: -30% and -30%.
Consider `O[C@H]1[C@H](O)[C@@H](O)C=C[C@@H]1O`, for which the figures for the Change in assay [1] and in assay [2] were 50% and 41%, respectively.
The corresponding values for `O[C@@H]1[C@H](O)[C@@H](O)C2C(C3CCC2[C@H](O)[C@@H]3O)[C@H]1O` (stereo partly specified) are 44% and -18%.
For `O[C@@H]1[C@H](O)[C@H](O)C=C[C@@H]1O`, in that order: 0% and 0%.
The corresponding values for `O[C@@H]1[C@H](O)[C@H](O)C=C[C@H]1O` are -20% and 27%.
`C[C@@]1(O)CC2C(C[C@@]1(C)O)[C@H](O)[C@@H](O)[C@@H](O)[C@@H]2O` (stereo partly specified): the Change in assay [1] is recorded as 0%; in assay [2], -60%.
As for `O[C@@H]1[C@H](O)[C@@H](O)C2C([C@H](O)CC[C@@H]2O)[C@H]1O` (stereo partly specified), the Change was -35% in assay [1] and -45% in assay [2].
The corresponding values for `CC(=O)O[C@@H]1[C@H](OC(C)=O)[C@@H](OC(C)=O)C2C(C3CCC2[C@H](O)[C@@H]3O)[C@H]1OC(C)=O` (stereo partly specified) are -23% and -60%.
The corresponding values for `CC(C)[C@@]12CC[C@@]3(C)C4C1[C@H](O[C@H]2[C@@H]3O)C(O)[C@@H](O)[C@@H]4O` (single isomer, unassigned) are -45% and -60%.
For `OC1[C@H]2O[C@@H]3C4CCC(C(C42)[C@@H](O)[C@@H]1O)[C@H]3O` (single isomer, unassigned), in that order: -70% and 0%.
